Assay results published in ChEMBL document CHEMBL1955741, “Identification of fused bicyclic heterocycles as potent and selective 5-HT(2A) receptor antagonists for the treatment of insomnia” (Bioorg Med Chem Lett, 2012).
Each block holds one compound with its values, some of them ahead of it. Active and inactive are the calls of the source. The calls are words filed in the database; no cut-off is given here.

Key:
[1] = target: 5-hydroxytryptamine receptor 2A (Homo sapiens, UniProt P28223)
Description: Displacement of [125I]-DOI from recombinant human 5HT2A receptor

[2] = target: T1, 5-hydroxytryptamine receptor 2C (Homo sapiens, UniProt P28335)
T1 sequence (P28335 whole entry): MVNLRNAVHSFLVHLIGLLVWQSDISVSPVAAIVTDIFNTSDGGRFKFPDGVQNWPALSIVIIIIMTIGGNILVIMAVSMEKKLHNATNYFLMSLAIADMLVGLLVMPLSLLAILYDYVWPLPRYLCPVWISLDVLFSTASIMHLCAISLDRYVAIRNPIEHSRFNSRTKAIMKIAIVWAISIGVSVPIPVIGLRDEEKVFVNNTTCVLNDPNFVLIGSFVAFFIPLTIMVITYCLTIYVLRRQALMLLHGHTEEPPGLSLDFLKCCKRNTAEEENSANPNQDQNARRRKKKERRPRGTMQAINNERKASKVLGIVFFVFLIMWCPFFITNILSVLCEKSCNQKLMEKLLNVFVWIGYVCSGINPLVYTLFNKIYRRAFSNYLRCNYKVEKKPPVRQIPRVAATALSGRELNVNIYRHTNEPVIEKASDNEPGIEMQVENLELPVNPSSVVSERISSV

Canis familiaris [3] = experiment: Toxicity in telemetered dog model assessed as change in hemodynamic measures upto 30 mg/kg; type: organism-based, Canis lupus familiaris; set-up: dose 30 mg/kg; settings: in vivo
Rattus norvegicus [4] = experiment: Antiinsomnia activity in rat assessed as increase in delta power at 0.1 mg/kg, po after 3 to 4 hrs; type: functional, organism-based; set-up: dose 0.1 mg/kg
Rattus norvegicus [5] = experiment: Inhibition of DOI-induced hypolocomotion in rat drug coadministered with DOI 10 mins prior testing; type: functional
[6] = Drug uptake in rat brain at 0.3 mg/kg after 0.75 hrs; type: ADME, organism-based; set-up: dose 0.3 mg/kg; settings: read-out: Drug uptake
Cytochrome P450 2D6 = Cytochrome P450 2D6 (Homo sapiens, UniProt P10635); experiment: Inhibition of CYP2D6 in human liver microsomes; type: ADME, Microsome
[7] = target: D(3) dopamine receptor (Homo sapiens) (UniProt P35462); experiment: Binding affinity to dopamine receptor D3 at 10 uM
Rattus norvegicus [8] = experiment: Volume of distribution at steady state in […] rat; type: ADME, organism-based; settings: in vivo
Canis familiaris [9] = experiment: Toxicity in telemetered dog model assessed as change in ECG measures upto 30 mg/kg; type: organism-based, Canis lupus familiaris; set-up: dose 30 mg/kg; settings: in vivo
[10] = target: T2, D(4) dopamine receptor (Homo sapiens) (UniProt P21917); experiment: Binding affinity to dopamine receptor D4 at 10 uM
T2 sequence (whole entry): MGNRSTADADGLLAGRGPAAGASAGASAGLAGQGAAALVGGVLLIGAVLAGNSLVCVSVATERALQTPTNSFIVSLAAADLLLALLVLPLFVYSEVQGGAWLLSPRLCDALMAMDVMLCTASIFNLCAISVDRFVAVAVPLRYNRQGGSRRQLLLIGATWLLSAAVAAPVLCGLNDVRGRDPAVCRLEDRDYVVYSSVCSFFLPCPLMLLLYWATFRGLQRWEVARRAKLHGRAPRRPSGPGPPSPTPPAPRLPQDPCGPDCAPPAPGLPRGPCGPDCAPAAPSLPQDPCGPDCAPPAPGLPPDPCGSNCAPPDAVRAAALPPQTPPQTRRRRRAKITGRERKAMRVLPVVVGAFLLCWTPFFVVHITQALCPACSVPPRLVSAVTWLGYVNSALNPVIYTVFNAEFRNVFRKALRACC

Rattus norvegicus [11] = experiment: Antiinsomnia activity in po dosed rat assessed as increase in sleep consolidation after 5 hrs; type: functional, organism-based
[12] = target: T3, Alpha-2A adrenergic receptor (Homo sapiens) (UniProt P08913); experiment: Binding affinity to adrenergic alpha 2 receptor at 10 uM
T3 sequence (whole entry): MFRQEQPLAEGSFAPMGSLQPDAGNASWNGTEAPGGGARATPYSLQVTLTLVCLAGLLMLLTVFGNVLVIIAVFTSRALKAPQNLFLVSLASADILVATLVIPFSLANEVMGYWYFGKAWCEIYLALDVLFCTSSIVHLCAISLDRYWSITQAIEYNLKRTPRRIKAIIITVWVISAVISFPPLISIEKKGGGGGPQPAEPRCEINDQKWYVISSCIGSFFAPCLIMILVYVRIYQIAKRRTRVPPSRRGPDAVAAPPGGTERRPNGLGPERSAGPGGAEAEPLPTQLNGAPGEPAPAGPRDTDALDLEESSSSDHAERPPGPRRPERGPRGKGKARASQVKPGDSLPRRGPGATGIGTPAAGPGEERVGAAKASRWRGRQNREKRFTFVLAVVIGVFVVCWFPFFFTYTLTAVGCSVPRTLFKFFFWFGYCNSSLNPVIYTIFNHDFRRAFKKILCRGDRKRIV

[13] = target: D(2) dopamine receptor (Homo sapiens) (UniProt P14416); experiment: Binding affinity to dopamine receptor D2 at 10 uM
Rattus norvegicus [14] = experiment: Total clearance in iv dosed rat; type: ADME, organism-based; settings: in vivo
Rattus norvegicus [15] = experiment: Oral bioavailability in rat; type: ADME, organism-based; settings: in vivo
Cytochrome P450 1A2 = target: T4, Cytochrome P450 1A2 (Homo sapiens, UniProt P05177); experiment: Inhibition of CYP1A2 in human liver microsomes; type: ADME, Microsome
T4 sequence (P05177 whole entry): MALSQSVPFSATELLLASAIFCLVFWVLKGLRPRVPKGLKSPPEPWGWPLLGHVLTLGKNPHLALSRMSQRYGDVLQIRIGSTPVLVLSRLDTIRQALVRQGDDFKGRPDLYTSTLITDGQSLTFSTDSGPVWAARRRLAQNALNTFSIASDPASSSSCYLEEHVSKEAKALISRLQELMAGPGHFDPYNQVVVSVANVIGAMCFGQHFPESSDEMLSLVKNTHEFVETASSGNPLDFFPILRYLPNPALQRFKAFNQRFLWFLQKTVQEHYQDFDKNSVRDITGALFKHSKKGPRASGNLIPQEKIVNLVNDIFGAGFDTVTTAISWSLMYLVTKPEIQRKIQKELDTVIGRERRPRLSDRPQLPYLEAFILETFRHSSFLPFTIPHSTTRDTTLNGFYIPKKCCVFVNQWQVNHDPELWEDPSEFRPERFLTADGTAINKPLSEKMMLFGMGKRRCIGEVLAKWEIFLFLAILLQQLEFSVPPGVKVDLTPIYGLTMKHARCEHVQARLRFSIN

Rattus norvegicus [16] = experiment: Antiinsomnia activity in po dosed rat assessed as decrease in non-rapid eye movement bout number after 5 hrs; type: functional, organism-based
[17] = Cmax in rat at 3 mg/kg, po; type: ADME, organism-based; set-up: dose 3 mg/kg, route oral; settings: in vivo
Rattus norvegicus [18] = experiment: AUClast in rat at 3 mg/kg, po; type: ADME, organism-based, Plasma; set-up: time 0 - last, dose 3 mg/kg, route oral; settings: in vivo
Cytochrome P450 2C9 = Cytochrome P450 2C9 (Homo sapiens, UniProt P11712); experiment: Inhibition of CYP2C9 in human liver microsomes; type: ADME, Microsome
[19] = target: D(1B) dopamine receptor (Homo sapiens) (UniProt P21918); experiment: Binding affinity to dopamine receptor D5 at 10 uM
Rattus norvegicus [20] = experiment: Antiinsomnia activity in po dosed rat assessed as increase in non-rapid eye movement bout duration after 5 hrs; type: functional, organism-based
[21] = target: T5, Alpha-1A adrenergic receptor (Homo sapiens) (UniProt P35348); experiment: Binding affinity to adrenergic alpha 1 receptor at 10 uM
T5 sequence (whole entry): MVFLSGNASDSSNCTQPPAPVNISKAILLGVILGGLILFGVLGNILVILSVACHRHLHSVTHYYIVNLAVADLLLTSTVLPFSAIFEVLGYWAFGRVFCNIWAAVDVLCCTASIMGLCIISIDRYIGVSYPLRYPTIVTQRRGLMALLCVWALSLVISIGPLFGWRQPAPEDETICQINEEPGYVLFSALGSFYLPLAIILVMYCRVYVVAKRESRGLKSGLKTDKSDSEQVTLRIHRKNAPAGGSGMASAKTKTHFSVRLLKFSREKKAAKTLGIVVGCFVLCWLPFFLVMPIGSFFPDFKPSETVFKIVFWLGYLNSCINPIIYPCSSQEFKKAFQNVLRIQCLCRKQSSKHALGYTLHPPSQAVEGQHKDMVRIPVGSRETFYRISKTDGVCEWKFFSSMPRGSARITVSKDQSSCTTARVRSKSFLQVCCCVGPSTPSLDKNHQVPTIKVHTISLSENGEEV

Rattus norvegicus [22] = experiment: Antiinsomnia activity in rat assessed as increase in delta power at 0.1 mg/kg, po after 1 hr; type: functional, organism-based; set-up: dose 0.1 mg/kg
[23] = Ratio of drug level in brain to plasma in rat at 0.3 mg/kg; type: ADME, organism-based; set-up: dose 0.3 mg/kg; settings: read-out: BPR
[24] = target: D(1A) dopamine receptor (Homo sapiens) (UniProt P21728); experiment: Binding affinity to dopamine receptor D1 at 10 uM
[25] = Plasma concentration in rat at 0.3 mg/kg after 0.75 hrs; type: ADME, organism-based; set-up: dose 0.3 mg/kg
[26] = Plasma protein binding in human; type: ADME, cell-free; settings: read-out: PPB (converted)
Cytochrome P450 2C19 = Cytochrome P450 2C19 (Homo sapiens, UniProt P33261); experiment: Inhibition of […] in human liver microsomes; type: ADME, Microsome
Cytochrome P450 3A4 = Cytochrome P450 3A4 (Homo sapiens, UniProt P08684); experiment: Inhibition of CYP3A4 in human liver microsomes; type: ADME, Microsome
[27] = Half life in rat liver microsomes; type: ADME, Microsome
[28] = Half life in po dosed rat; type: ADME, organism-based; settings: in vivo
[29] = Plasma concentration in rat at 3 mg/kg after 0.75 hrs; type: ADME, organism-based; set-up: dose 3 mg/kg
Rattus norvegicus [30] = experiment: Inhibition of DOI-induced hypolocomotion in rat at 3 mg/kg coadministered with DOI 10 mins prior testing; type: functional, organism-based; set-up: dose 3 mg/kg

Chain of 5-hydroxytryptamine receptor 2A (P28223 whole entry): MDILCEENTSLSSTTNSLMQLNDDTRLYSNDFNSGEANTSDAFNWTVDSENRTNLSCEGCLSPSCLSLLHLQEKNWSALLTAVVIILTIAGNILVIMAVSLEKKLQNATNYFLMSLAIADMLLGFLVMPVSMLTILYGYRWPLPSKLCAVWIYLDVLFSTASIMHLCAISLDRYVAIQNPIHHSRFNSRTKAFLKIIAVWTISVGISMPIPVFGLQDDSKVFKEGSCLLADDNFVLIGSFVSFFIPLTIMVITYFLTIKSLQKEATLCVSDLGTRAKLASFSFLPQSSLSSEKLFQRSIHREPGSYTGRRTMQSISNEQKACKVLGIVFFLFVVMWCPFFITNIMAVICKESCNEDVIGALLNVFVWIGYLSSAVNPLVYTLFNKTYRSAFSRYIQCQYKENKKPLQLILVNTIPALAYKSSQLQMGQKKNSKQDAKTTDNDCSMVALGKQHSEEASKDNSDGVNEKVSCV
Chain of D(3) dopamine receptor (Homo sapiens) (P35462 whole entry): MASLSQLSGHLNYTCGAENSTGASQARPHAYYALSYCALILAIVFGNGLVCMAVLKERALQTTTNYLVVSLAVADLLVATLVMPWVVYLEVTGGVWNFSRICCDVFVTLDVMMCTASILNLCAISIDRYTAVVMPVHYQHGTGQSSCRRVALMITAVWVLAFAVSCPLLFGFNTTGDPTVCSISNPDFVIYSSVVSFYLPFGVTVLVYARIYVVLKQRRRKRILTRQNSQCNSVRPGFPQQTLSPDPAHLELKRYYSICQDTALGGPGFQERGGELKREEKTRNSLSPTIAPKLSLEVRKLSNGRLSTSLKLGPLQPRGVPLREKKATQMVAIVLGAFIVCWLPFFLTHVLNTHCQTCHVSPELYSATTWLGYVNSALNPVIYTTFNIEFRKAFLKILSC
Chain of Cytochrome P450 3A4 (P08684 whole entry): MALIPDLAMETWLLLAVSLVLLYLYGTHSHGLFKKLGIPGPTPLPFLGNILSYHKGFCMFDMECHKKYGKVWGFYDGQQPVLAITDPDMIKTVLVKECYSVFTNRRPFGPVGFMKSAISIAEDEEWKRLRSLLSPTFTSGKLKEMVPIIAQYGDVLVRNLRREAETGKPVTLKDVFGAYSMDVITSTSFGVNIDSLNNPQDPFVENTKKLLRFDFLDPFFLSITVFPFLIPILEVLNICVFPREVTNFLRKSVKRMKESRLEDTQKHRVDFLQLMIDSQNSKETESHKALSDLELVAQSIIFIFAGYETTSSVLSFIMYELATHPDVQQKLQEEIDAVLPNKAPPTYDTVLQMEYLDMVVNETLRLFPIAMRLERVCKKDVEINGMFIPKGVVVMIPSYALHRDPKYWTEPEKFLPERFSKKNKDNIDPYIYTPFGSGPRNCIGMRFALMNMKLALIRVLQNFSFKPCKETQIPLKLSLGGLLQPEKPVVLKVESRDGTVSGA
Chain of Cytochrome P450 2C9 (P11712 whole entry): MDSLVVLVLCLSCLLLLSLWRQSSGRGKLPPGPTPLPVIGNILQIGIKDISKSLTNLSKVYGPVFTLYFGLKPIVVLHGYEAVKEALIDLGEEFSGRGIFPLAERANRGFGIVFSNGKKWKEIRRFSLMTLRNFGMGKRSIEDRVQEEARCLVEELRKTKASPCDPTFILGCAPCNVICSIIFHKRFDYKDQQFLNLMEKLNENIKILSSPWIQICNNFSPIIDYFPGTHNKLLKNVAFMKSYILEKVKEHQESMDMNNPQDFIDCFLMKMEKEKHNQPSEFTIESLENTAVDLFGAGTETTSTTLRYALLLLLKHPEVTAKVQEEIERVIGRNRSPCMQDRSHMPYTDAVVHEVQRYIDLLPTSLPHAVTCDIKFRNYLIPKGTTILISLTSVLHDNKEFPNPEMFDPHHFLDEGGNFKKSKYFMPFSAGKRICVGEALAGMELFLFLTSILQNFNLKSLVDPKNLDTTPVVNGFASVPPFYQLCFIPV
Chain of D(2) dopamine receptor (Homo sapiens) (P14416 whole entry): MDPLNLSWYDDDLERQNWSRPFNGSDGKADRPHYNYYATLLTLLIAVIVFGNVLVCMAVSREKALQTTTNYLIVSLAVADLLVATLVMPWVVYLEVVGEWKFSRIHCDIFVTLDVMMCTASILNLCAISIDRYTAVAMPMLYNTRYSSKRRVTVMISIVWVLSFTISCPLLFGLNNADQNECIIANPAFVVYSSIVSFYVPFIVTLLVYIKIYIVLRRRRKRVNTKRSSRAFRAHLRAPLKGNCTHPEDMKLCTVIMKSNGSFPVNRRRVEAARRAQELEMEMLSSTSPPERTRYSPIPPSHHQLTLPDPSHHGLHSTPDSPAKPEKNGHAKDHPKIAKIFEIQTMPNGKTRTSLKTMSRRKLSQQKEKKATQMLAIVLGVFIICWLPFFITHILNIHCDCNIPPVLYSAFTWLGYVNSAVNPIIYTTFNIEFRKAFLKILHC
Chain of D(1A) dopamine receptor (Homo sapiens) (P21728 whole entry): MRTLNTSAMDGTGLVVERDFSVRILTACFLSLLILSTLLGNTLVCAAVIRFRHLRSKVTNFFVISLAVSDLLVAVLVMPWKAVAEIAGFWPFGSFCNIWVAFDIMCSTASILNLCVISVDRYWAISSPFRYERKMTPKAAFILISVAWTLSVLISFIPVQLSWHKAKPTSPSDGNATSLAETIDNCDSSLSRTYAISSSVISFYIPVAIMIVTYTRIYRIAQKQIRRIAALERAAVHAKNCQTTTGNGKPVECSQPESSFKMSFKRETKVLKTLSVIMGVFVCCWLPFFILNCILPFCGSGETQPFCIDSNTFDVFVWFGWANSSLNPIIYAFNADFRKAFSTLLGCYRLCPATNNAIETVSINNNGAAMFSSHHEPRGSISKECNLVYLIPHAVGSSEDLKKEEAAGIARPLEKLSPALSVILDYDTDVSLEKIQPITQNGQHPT
Chain of D(1B) dopamine receptor (Homo sapiens) (P21918 whole entry): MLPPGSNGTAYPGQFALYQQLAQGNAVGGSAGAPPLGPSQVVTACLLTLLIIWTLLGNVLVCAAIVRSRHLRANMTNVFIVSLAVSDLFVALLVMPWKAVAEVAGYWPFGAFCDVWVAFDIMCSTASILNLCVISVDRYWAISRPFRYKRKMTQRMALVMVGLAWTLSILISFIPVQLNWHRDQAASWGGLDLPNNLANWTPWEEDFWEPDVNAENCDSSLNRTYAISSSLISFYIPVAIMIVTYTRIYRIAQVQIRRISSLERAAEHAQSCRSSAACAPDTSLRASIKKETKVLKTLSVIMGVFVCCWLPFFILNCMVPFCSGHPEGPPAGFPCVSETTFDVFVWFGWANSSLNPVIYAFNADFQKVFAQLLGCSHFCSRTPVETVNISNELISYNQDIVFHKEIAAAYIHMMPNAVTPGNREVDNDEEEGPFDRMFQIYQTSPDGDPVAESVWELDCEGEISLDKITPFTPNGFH
Chain of Cytochrome P450 2D6 (P10635 whole entry): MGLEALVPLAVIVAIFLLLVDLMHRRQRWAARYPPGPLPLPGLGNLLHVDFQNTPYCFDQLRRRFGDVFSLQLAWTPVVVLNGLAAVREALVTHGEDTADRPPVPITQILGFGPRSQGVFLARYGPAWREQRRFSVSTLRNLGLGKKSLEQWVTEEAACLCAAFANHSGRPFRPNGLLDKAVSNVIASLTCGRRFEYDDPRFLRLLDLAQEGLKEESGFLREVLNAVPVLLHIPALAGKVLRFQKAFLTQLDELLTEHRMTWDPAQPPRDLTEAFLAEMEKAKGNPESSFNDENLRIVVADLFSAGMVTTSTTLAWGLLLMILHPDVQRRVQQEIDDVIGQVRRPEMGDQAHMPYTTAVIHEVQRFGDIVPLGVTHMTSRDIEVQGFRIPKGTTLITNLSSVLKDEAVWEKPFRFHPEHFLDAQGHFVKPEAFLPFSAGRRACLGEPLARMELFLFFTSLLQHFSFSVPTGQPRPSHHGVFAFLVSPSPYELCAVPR
Chain of Cytochrome P450 2C19 (P33261 whole entry): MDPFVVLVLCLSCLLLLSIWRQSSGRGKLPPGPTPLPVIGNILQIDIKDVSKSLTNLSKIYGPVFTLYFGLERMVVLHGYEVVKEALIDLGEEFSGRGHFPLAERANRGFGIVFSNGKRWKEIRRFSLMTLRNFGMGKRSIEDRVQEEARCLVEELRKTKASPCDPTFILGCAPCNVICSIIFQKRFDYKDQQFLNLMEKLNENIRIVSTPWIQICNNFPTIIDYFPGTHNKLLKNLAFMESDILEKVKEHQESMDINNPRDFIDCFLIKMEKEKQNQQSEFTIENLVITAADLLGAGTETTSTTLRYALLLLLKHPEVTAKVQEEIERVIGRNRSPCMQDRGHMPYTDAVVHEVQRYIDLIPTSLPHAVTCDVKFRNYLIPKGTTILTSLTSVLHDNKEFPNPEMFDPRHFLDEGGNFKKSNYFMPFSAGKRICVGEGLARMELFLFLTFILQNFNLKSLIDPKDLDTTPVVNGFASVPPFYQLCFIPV

Compound: Nc1cccn2cc(C(=O)N3CCN(CCc4ccc(F)cc4F)CC3)nc12
Ki [1]: 2.7 nM | Ki [2]: 190 nM

Compound: O=C(c1cccn2cc(Br)nc12)N1CCN(CCc2ccc(F)cc2F)CC1
Ki [1]: 1.7 nM | Ki [2]: 682 nM

Compound: N#Cc1cn2cccc(C(=O)N3CCN(CCc4ccc(F)cc4F)CC3)c2n1
Ki [1]: 2.8 nM | Ki [2]: 6900 nM

Compound: Cc1nc2ccccn2c1C(=O)N1CCN(CCc2ccc(F)cc2F)CC1
Ki [1]: 3.5 nM | Ki [2]: 997 nM

Compound: O=C(c1cnn2ccccc12)N1CCN(CCc2ccc(F)cc2F)CC1
Ki [1]: 1.8 nM | Ki [2]: 246 nM

Compound: O=C(c1cccn2cc(Cl)nc12)N1CCN(CCc2ccc(F)cc2F)CC1
Ki [1]: 1.5 nM | Ki [2]: 391 nM

The next lines start with results.

Ki [1]: 3.8 nM | Ki [2]: 910 nM
Compound: O=C(c1cnn2cccnc12)N1CCN(CCc2ccc(F)cc2F)CC1

Ki [1]: 1.4 nM | Ki [2]: 152 nM
Compound: Nc1cccc2nc(C(=O)N3CCN(CCc4ccc(F)cc4F)CC3)cn12

concentration at 0.75 h [6]: 14.5 ng/mL | IC50 (Cytochrome P450 2D6): > 40000 nM | Activity [7]: < 50% | Vdss (Rattus norvegicus [8]): 1.7 L/kg | Activity [10]: < 50% | Activity [12]: < 50% | Activity [13]: < 50% | clearance (Rattus norvegicus [14]): 58.3 mL/min/kg | bioavailability (Rattus norvegicus [15]): 47% | IC50 (Cytochrome P450 1A2): > 40000 nM | Cmax [17]: 943 ng/mL | AUClast (Rattus norvegicus [18]): 440 ng·h/mL | IC50 (Cytochrome P450 2C9): > 40000 nM | Activity [19]: < 50% | Activity [21]: < 50% | Kp [23]: 1.32 | Ki [2]: 524 nM | Activity [24]: < 50% | concentration at 0.75 h [25]: 11 ng/mL | fraction unbound [26]: 0.326 | IC50 (Cytochrome P450 2C19): > 40000 nM | IC50 (Cytochrome P450 3A4): > 40000 nM | half-life [27]: 16 min | half-life [28]: 30 min
Compound: O=C(c1cccn2ccnc12)N1CCN(CCc2ccc(F)cc2F)CC1
Activity (Canis familiaris [3]): Non-toxic | Activity (Rattus norvegicus [4]): Active | ED50 (Rattus norvegicus [5]): 0.3 mg/kg | Activity (Canis familiaris [9]): Non-toxic | Activity (Rattus norvegicus [11]): Dose-dependent effect | Activity (Rattus norvegicus [16]): Dose-dependent effect | Activity (Rattus norvegicus [20]): Dose-dependent effect | Activity (Rattus norvegicus [22]): Active

Ki [1]: 4.3 nM | Ki [2]: 596 nM
Compound: O=C(c1cn2ccccc2n1)N1CCN(CCc2ccc(F)cc2F)CC1

Ki [1]: 0.6 nM | Ki [2]: 394 nM
Compound: O=C(c1nn2ccccc2c1Cl)N1CCN(CCc2ccc(F)cc2F)CC1

Vdss (Rattus norvegicus [8]): 8.1 L/kg | concentration at 0.75 h [29]: 8.3 ng/mL | clearance (Rattus norvegicus [14]): 155 mL/min/kg | bioavailability (Rattus norvegicus [15]): 9% | half-life [28]: 84 min
Compound: Cn1cc(Br)c(C(=O)N2CCN(CCc3ccc(F)cc3)CC2)n1
Activity (Rattus norvegicus [30]): Active
